Source: patent US10869931B2, “Polyethylene glycol-modified angiogenesis inhibitor HM-1 and application thereof” (NANJING ANJI BIOLOGICAL TECHNOLOGY CO.,LTD, priority 2016, dated 2020)
Marks after values point to notes of the source that are not given here. Where no end group is shown, it is not given here.

Tests used:
[1] = system: carrageenan-induced toe swelling in SD rats; test: Carrageenan-induced acute toe swelling in rats; type: in vivo, rat; parameters: Swelling: unit not given here
Method: SD rats were divided into blank model group, dexamethasone-positive group (5 mg/kg) and mPEG-HM-1 test group. The drug was administered once a day, and the model group was given the same volume of normal saline for 3 days and fed normally. At the first hour after the last administration, 0.1 mL of 1% carrageenan was injected subcutaneously into the right hind paw of the rats to induce inflammation. The volume of the foot was measured at 1 h, 3 h, 5 h, and 7 h after inflammation. The degree of swelling of the foot was calculated according to the following formula: the degree of swelling of the foot (mL)=the volume of the foot after inflammation−the volume before inflammation. Record the number of milliliters of spilled liquid (method: use the ballpoint pen to circle as the measurement mark at the protruding point of the right joint, and then put the right hind foot of each mouse into the volume measuring device, so that the hind limb is exposed outside the cylinder, and the depth of the immersion was determined by coinciding the circle with the liquid surface. After the foot enters the liquid, the liquid level rises, and the volume of the overflow liquid is the volume of the right hind foot of the rat, and the normal volume of the right hind foot of each mouse is sequentially determined).

[2] = system: corneal neovascularization in BALB/c mice; test: Alkali-burn corneal neovascularization in BALB/c mice (CD31 microvessel density); type: in vivo, mouse; conditions: for Inhibition rate: corneal microvessel density vs control; for Inhibition rate / MVD: day 14 after alkali burn, intravitreal once a day for 1 week; for MVD: microvessel density (CD31) of cornea; for inhibition rate of corneal neovascularization: BALB/c mice, alkali burn, intravitreal injection once a day for 1 week
Source text: (1) Preparation of corneal neovascularization model induced by alkali burn in BALB/c mice: mice were randomly grouped and labeled as mPEG-HM-1 experimental group and control group, 5 […] in each group, respectively, was given mPEG-HM-1 and saline by Intravitreal injection after alkali burn, once a day for 1 week. The inflammatory reaction and neovascularization of the cornea were observed under slit lamp microscope at 1 d, 7 d, and 14 d after alkali burn. On the 14th day after alkali burn, the corneal neovascularization was recorded under the slit lamp microscope in the anterior segment of the eye. All the mice were euthanized by cervical dislocation and the eyeballs were removed, washed with saline to rid of blood, and was fixed in 4% paraformaldehyde for 1.5 h, dehydrated in PBS containing 30% sucrose overnight, embedded in OCT frozen section embedding agent, stored in −80° C. refrigerator, frozen section 8 μm, and underwent immunocytochemical detection of CD31 expression. (2) Quantitative measurement of corneal tissue microvessel density: Microvessel density (MVD) is an indicator for evaluating angiogenesis. Vascular endothelial cells were labeled with anti-CD31 antibody by immunohistochemistry, and the number of microvessels per unit area was counted to measure the degree of neovascularization. Standards for counting microvessels: Microscopically, the endothelial cells or cell clusters that are clearly demarcated from adjacent tissues in the corneal tissue and stained brown or brown are counted in the neovascularization. The number of new blood vessels in the whole section was counted under a 10×20 microscope. After the corneal tissue was photographed, the entire corneal tissue area was calculated by image processing software Image J, and the neovascular density of the whole section was determined. The test was repeated 3 times independently. The results obtained by the test were expressed as mean±SD, and a statistical T test was performed. *P<0.05 was a significant difference, and **P<0.01 was a very significant difference.

Lung cancer tumor cells = test: MTT proliferation inhibition, lung cancer cells; type: cell-based, human; parameters: concentration or dose not given beside the values; conditions: 48 h
Method: The activity of mPEG-HM-1 to inhibit the growth of various tumor cells was examined by MTT assay. The tumor cells were cultured to a concentration of 90% or more in a 37° C., 5% CO2 incubator and collected by trypsinization. The cells were resuspended in the culture medium and counted under a microscope to adjust the cell concentration to 2×10^4 cells/mL, the cell suspension was inoculated into a 96-well plate at 100 μL/well and incubated overnight at 37° C. in a 5% CO2 incubator. mPEG-HM-1 was diluted with the culture solution to each predetermined concentration. Docetaxel is diluted to the final concentration with the culture medium. After the cells were fully attached, each dilution was added to a 96-well plate (100 μL/well). The mPEG-HM-1 dilution was added as a drug-administered group, and docetaxel was added as a positive control group, and a culture solution without any drug was used as a negative control group. Incubate for 48 h at 37° C. in a 5% CO2 incubator. 5 mg/mL of MTT was added to a 96-well plate at 20 μL per well, and incubation was continued for 4 hours. The medium was aspirated, dissolved in 150 μL of DMSO per well, and gently mixed by shaking for 10 min. The absorbance was measured at a measurement wavelength of 570 nm and a reference wavelength of 630 nm using a microplate reader, and the rate of growth inhibition (proliferation inhibition, PI) was calculated. The formula is as follows: PI (%)=1−administration group/negative group
The test was repeated 3 times independently, and the results obtained by the test were expressed as mean±SD, and the test results are shown in Table 15 to Table 18.

[3] = system: human retinal vascular endothelial cells (HRCEC); test: MTT proliferation of human retinal vascular endothelial cells; type: cell-based; conditions: 48 h; for Inhibition rate: HRCEC proliferation; for A570 nm-A630 nm: HRCEC; for A570 nm-A630 nm / inhibition rate of HRCEC proliferation: MTT
Method: The activity of the angiogenesis inhibitor polypeptide to inhibit proliferation of human retinal vascular endothelial cells was examined by MTT assay. HRCEC cells were cultured in a 37° C., 5% CO2 incubator to a density of 90% or more, and collected by trypsinization. The cells were resuspended in the culture medium and counted under a microscope to adjust the cell concentration to 3.0×10^4 cells/mL. The cell suspension was inoculated into a 96-well plate at 100 μL per well and cultured overnight at 37° C. in a 5% CO2 incubator. After the cells were completely adhered, the angiogenesis inhibitor polypeptide was added as the administration group, and Avastin was used as the positive control group, and the culture media without any drug was used as a blank control group, and the culture media were diluted to each predetermined concentration. Each dilution was separately added to a 96-well plate at 100 μL per well and incubated for 48 h at 37° C. in a 5% CO2 incubator. 20 μL of 5 mg/mL MTT was added to each well of a 96-well plate and incubation was continued for 4 h. The medium was aspirated and dissolved in 100 μL of DMSO per well. […] The formula is as follows: PI (%)=1−administration group/negative group
The test was repeated 3 times independently. The results obtained by the test were expressed as mean±SD, and a statistical T test was performed. *P<0.05 was a significant difference, and **P<0.01 was a very significant difference.

[4] = 80 mg/kg once a day for 3 days, 1 h after carrageenan
[5] = 80 mg/kg once a day for 3 days, 3 h after carrageenan
[6] = 80 mg/kg once a day for 3 days, 5 h after carrageenan
[7] = 80 mg/kg once a day for 3 days, 7 h after carrageenan
[8] = 20 mg/kg once a day for 3 days, 1 h after carrageenan
[9] = 20 mg/kg once a day for 3 days, 3 h after carrageenan
[10] = 20 mg/kg once a day for 3 days, 5 h after carrageenan
[11] = 20 mg/kg once a day for 3 days, 7 h after carrageenan
[12] = 40 mg/kg once a day for 3 days, 1 h after carrageenan
[13] = 40 mg/kg once a day for 3 days, 3 h after carrageenan
[14] = 40 mg/kg once a day for 3 days, 5 h after carrageenan
[15] = 40 mg/kg once a day for 3 days, 7 h after carrageenan

| Substance | Swelling [1, 4] | Swelling [1, 5] | Swelling [1, 6] | Inhibition rate [2] | MVD [2] | rate of growth inhibition (Lung cancer tumor cells) | Inhibition rate ([3]; 80 μg/mL) | A570 nm-A630 nm ([3]; 80 μg/mL) | Swelling [1, 8] | Swelling [1, 9] | Swelling [1, 10] | Swelling [1, 11] | Swelling [1, 12] | Swelling [1, 13] | Swelling [1, 14] | Swelling [1, 15] | Inhibition rate ([3]; 40 μg/mL) | A570 nm-A630 nm ([3]; 40 μg/mL) | Inhibition rate ([3]; 60 μg/mL) | A570 nm-A630 nm ([3]; 60 μg/mL) | also measured |
| --- | --- | --- | --- | --- | --- | --- | --- | --- | --- | --- | --- | --- | --- | --- | --- | --- | --- | --- | --- | --- | --- |
| mPEG2-NHS40k-Arg-Gly-Ala-Asp-Arg-Ala-Gly-Gly-Gly-Gly-Arg-Gly-Asp ({mPEG2‑NHS 40 kDa}-RGADRAGGGGRGD) [mPEG2-NHS40k-HM-1] | 0.26 ± 0.12 | 0.32 ± 0.11 | 0.42 ± 0.14 | 43.19% | 37.91 ± 4.273** | 49.39 ± 16.55% | 42.52%* | 0.7598 ± 0.07143 |  |  |  |  |  |  |  |  |  |  |  |  | Swelling [1, 7]: 0.35 ± 0.17; Swelling ([1]; 160 mg/kg once a day for 3 days, 1 h after carrageenan): 0.27 ± 0.10; Swelling ([1]; 160 mg/kg once a day for 3 days, 3 h after carrageenan): 0.35 ± 0.18; Swelling ([1]; 160 mg/kg once a day for 3 days, 5 h after carrageenan): 0.41 ± 0.13; Swelling ([1]; 160 mg/kg once a day for 3 days, 7 h after carrageenan): 0.34 ± 0.19; Inhibition rate ([3]; 100 μg/mL): 51.86%**; A570 nm-A630 nm ([3]; 100 μg/mL): 0.6363 ± 0.07532; Inhibition rate ([3]; 120 μg/mL): 62.78%*; A570 nm-A630 nm ([3]; 120 μg/mL): 0.4920 ± 0.07953 |
| mPEG-ALD10k-Arg-Gly-Ala-Asp-Arg-Ala-Gly-Gly-Gly-Gly-Arg-Gly-Asp ({mPEG‑ALD 10 kDa}-RGADRAGGGGRGD) [mPEG-ALD10k-HM-1] |  |  |  | 53.83% | 30.81 ± 5.465** | 65.73 ± 16.20% | 73.89%* | 0.3422 ± 0.07412 | 0.24 ± 0.12 | 0.36 ± 0.13 | 0.42 ± 0.15 | 0.32 ± 0.10 | 0.21 ± 0.10 | 0.31 ± 0.20 | 0.36 ± 0.13 | 0.33 ± 0.12 | 48.34%* | 0.6771 ± 0.07904 | 58.62%** | 0.5424 ± 0.07508 | inhibition of carrageenan-induced toe swelling (in words) ([1]; rats, 40 mg/kg, once a day for 3 days): most effective; inhibition rate of corneal neovascularization [2]: 53.83%; inhibition rate of HRCEC proliferation ([3]; 80 μg/mL): 73.89% |
| mPEG-SC5k-Arg-Gly-Ala-Asp-Arg-Ala-Gly-Gly-Gly-Gly-Arg-Gly-Asp ({mPEG‑SC 5 kDa}-RGADRAGGGGRGD) [mPEG-SC5k-HM-1] |  |  |  | 40.52% | 39.69 ± 3.527* | 45.33 ± 12.67% |  |  | 0.23 ± 0.10 | 0.33 ± 0.20 | 0.38 ± 0.13 | 0.34 ± 0.15 |  |  |  |  | 51.76%** | 0.6323 ± 0.08797 | 62.10%* | 0.4968 ± 0.08679 | Swelling ([1]; 10 mg/kg once a day for 3 days, 1 h after carrageenan): 0.24 ± 0.12; Swelling ([1]; 10 mg/kg once a day for 3 days, 3 h after carrageenan): 0.37 ± 0.14; Swelling ([1]; 10 mg/kg once a day for 3 days, 5 h after carrageenan): 0.42 ± 0.16; Swelling ([1]; 10 mg/kg once a day for 3 days, 7 h after carrageenan): 0.32 ± 0.13; Inhibition rate ([3]; 20 μg/mL): 42.22%*; A570 nm-A630 nm ([3]; 20 μg/mL): 0.7573 ± 0.09088 |
| mPEG2-NHS20k-Arg-Gly-Ala-Asp-Arg-Ala-Gly-Gly-Gly-Gly-Arg-Gly-Asp ({mPEG2‑NHS 20 kDa}-RGADRAGGGGRGD) [mPEG2-NHS20k-HM-1] | 0.25 ± 0.11 | 0.32 ± 0.13 | 0.41 ± 0.11 | 42.37% | 38.46 ± 4.528** | 50.82 ± 12.68% | 54.18%** | 0.6056 ± 0.07003 |  |  |  |  | 0.26 ± 0.15 | 0.34 ± 0.14 | 0.43 ± 0.17 | 0.36 ± 0.12 |  |  | 44.01%* | 0.7401 ± 0.07482 | Swelling [1, 7]: 0.34 ± 0.14; Inhibition rate ([3]; 100 μg/mL): 64.62%*; A570 nm-A630 nm ([3]; 100 μg/mL): 0.4677 ± 0.07601 |
| mPEG-SC10k-Arg-Gly-Ala-Asp-Arg-Ala-Gly-Gly-Gly-Gly-Arg-Gly-Asp ({mPEG‑SC 10 kDa}-RGADRAGGGGRGD) [mPEG-SC10k-HM-1] |  |  |  | 52.17% | 31.92 ± 3.648** | 50.29 ± 13.18% | 68.84%* | 0.4084 ± 0.07298 | 0.25 ± 0.11 | 0.38 ± 0.15 | 0.43 ± 0.17 | 0.31 ± 0.11 | 0.22 ± 0.09 | 0.32 ± 0.19 | 0.37 ± 0.12 | 0.34 ± 0.13 | 46.44%* | 0.7020 ± 0.07964 | 55.39%** | 0.5847 ± 0.07356 | inhibition rate of corneal neovascularization [2]: 52.17%; inhibition rate of HRCEC proliferation ([3]; 80 μg/mL): 68.84% |
